From patent US20060069132A1, “Azolecarboxamide herbicides” (priority 2004, published 2006)

Legend:
large crabgrass = assay: Test B pre-/postemergence herbicide test; type: in vivo, Digitaria sanguinalis; details: for Crabgrass, Large plant response rating: postemergence, scale 0 (no effect) to 100 (complete control)
How it was run: (§1)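 Visual rating, 0 (no effect) to 100 (complete control), versus untreated controls after 13–15 d in greenhouse. Pre- and postemergence applications (postemergence plants 2–18 cm, 1–4 leaves); flooded paddy arm at 2-leaf stage. Compounds in non-phytotoxic solvent plus surfactant.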

giant foxtail = assay: Test B pre-/postemergence herbicide test; type: in vivo, Setaria faberi; details: for Foxtail, Giant plant response rating: postemergence, scale 0 (no effect) to 100 (complete control)
How it was run: as §1

lambsquarters = assay: Test B pre-/postemergence herbicide test; type: in vivo, Chenopodium album; details: for Lambsquarters plant response rating: postemergence, scale 0 (no effect) to 100 (complete control)
How it was run: as §1

blackgrass = assay: Test B postemergence herbicide test; type: in vivo, Alopecurus myosuroides; details: postemergence, visual rating, scale 0 (no effect) to 100 (complete control)
How it was run: (§2)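 Visual ratings, 0 (no effect) to 100 (complete control), made versus controls after 13–15 d greenhouse. Paddy plants treated at 2-leaf stage; postemergence plants at 1- to 4-leaf stage, 2–18 cm tall.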

ducksalad = assay: Test B flooded paddy test; type: in vivo, Heteranthera limosa; details: 1000 g ai/ha, visual rating, scale 0 to 100 (0 no effect, 100 complete control), 13 to 15 days
How it was run: as §2

barnyardgrass [1] = assay: Test B flooded paddy test; type: in vivo, Echinochloa crus-galli; details: 1000 g ai/ha, visual rating, scale 0 to 100 (0 no effect, 100 complete control), 13 to 15 days
How it was run: as §2

[2] = system: small flower umbrella sedge; assay: Test B flooded paddy test; type: in vivo, Cyperus difformis; details: 1000 g ai/ha, visual rating, scale 0 to 100 (0 no effect, 100 complete control), 13 to 15 days
How it was run: as §2

Surinam grass = assay: Test B pre-/postemergence herbicide test; type: in vivo, Urochloa decumbens; details: for Surinam Grass plant response rating: postemergence, scale 0 (no effect) to 100 (complete control)
How it was run: as §1

wheat = assay: Test B postemergence herbicide test; type: in vivo, Triticum aestivum; parameters: key to Wheat plant response rating: 0 = no effect, 100 = complete control; details: postemergence, visual rating, scale 0 (no effect) to 100 (complete control)
How it was run: as §2

morningglory = assay: Test B pre-/postemergence herbicide test; type: in vivo, Ipomoea coccinea; details: visual rating; for Morningglory plant response rating: postemergence, scale 0 (no effect) to 100 (complete control)
How it was run: as §1

velvetleaf = assay: Test B pre-/postemergence herbicide test; type: in vivo, Abutilon theophrasti; details: for Velvetleaf plant response rating: postemergence, scale 0 (no effect) to 100 (complete control)
How it was run: as §1

cocklebur = assay: Test B pre-/postemergence herbicide test; type: in vivo, Xanthium strumarium; details: for Cocklebur plant response rating: postemergence, scale 0 (no effect) to 100 (complete control)
How it was run: as §1

rice [3] = assay: Test B pre-/postemergence herbicide test; type: in vivo, Oryza sativa; details: 0 = no effect, 100 = complete control, preemergence
How it was run: as §1

pigweed = assay: Test B pre-/postemergence herbicide test; type: in vivo, Amaranthus retroflexus; details: for Pigweed plant response rating: postemergence, scale 0 (no effect) to 100 (complete control)
How it was run: as §1

rice [4] = assay: Test B flooded paddy test; type: in vivo, Oryza sativa; details: 1000 g ai/ha, visual rating, scale 0 to 100 (0 no effect, 100 complete control), 13 to 15 days
How it was run: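 Read-out: visual comparison with controls, scored 0 to 100, where 100 means complete control and 0 no effect. Formulated chemicals were applied postemergence to plants 2–18 cm tall (1- to 4-leaf), or to flooded-paddy plants at the 2-leaf stage, then held 13 to 15 days under glass.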

barnyardgrass [5] = assay: Test B pre-/postemergence herbicide test; type: in vivo, Echinochloa crus-galli; details: for Barnyardgrass plant response rating: postemergence, scale 0 (no effect) to 100 (complete control)
How it was run: as §1

wild oat = assay: Test B postemergence herbicide test; type: in vivo, Avena fatua; details: postemergence, visual rating, scale 0 (no effect) to 100 (complete control)
How it was run: as §2

corn = assay: Test B pre-/postemergence herbicide test; type: in vivo, Zea mays; details: for Corn plant response rating: postemergence, scale 0 (no effect) to 100 (complete control)
How it was run: as §1

[6] = 125 g ai/ha, 0 = no effect, 100 = complete control, preemergence
[7] = 500 g ai/ha, visual rating, 0 = no effect, 100 = complete control, preemergence

Compound: CCc1nn(C(C)(C)C)cc1C(=O)Nc1cc(C(=O)N(C)CC)ccc1F [Compound 224]
- Crabgrass, Large plant response rating (0 to 100 scale) (large crabgrass; [6]): 30
- Plant response rating, Crabgrass, Large (large crabgrass; [7]): 100
- Crabgrass, Large plant response rating (large crabgrass; 125 g ai/ha, visual rating): 10
- Crabgrass, Large plant response rating (large crabgrass; 500 g ai/ha, visual rating): 20
- Foxtail, Giant plant response rating (0 to 100 scale) (giant foxtail; [6]): 10
- Plant response rating, Foxtail, Giant (giant foxtail; [7]): 70
- Foxtail, Giant plant response rating (giant foxtail; 125 g ai/ha, visual rating): 20
- Foxtail, Giant plant response rating (giant foxtail; 500 g ai/ha, visual rating): 30
- Lambsquarters plant response rating (0 to 100 scale) (lambsquarters; [6]): 100
- Plant response rating, Lambsquarters (lambsquarters; [7]): 100
- Lambsquarters plant response rating (lambsquarters; 125 g ai/ha, visual rating): 60
- Lambsquarters plant response rating (lambsquarters; 500 g ai/ha, visual rating): 70
- Blackgrass plant response rating (blackgrass; 125 g ai/ha): 0
- Blackgrass plant response rating (blackgrass; 500 g ai/ha): 10
- Ducksalad plant response rating (ducksalad): 80
- Barnyardgrass plant response rating (barnyardgrass [1]): 90
- Sedge, Umbrella plant response rating [2]: 80
- Surinam Grass plant response rating (0 to 100 scale) (Surinam grass; [6]): 60
- Plant response rating, Surinam Grass (Surinam grass; [7]): 100
- Surinam Grass plant response rating (Surinam grass; 125 g ai/ha, visual rating): 10
- Surinam Grass plant response rating (Surinam grass; 500 g ai/ha, visual rating): 20
- Wheat plant response rating (wheat; 125 g ai/ha): 0
- Wheat plant response rating (wheat; 500 g ai/ha): 30
- Plant response rating, Morningglory (morningglory; 500 g ai/ha, 0 = no effect, 100 = complete control, preemergence): 30
- Morningglory plant response rating (morningglory; 125 g ai/ha): 30
- Morningglory plant response rating (morningglory; 500 g ai/ha): 70
- Velvetleaf plant response rating (0 to 100 scale) (velvetleaf; [6]): 70
- Plant response rating, Velvetleaf (velvetleaf; [7]): 100
- Velvetleaf plant response rating (velvetleaf; 125 g ai/ha, visual rating): 20
- Velvetleaf plant response rating (velvetleaf; 500 g ai/ha, visual rating): 60
- Cocklebur plant response rating (0 to 100 scale) (cocklebur; [6]): 20
- Plant response rating, Cocklebur (cocklebur; [7]): 50
- Cocklebur plant response rating (cocklebur; 125 g ai/ha, visual rating): 10
- Cocklebur plant response rating (cocklebur; 500 g ai/ha, visual rating): 40
- Rice plant response rating (0 to 100 scale) (rice [3]; 125 g ai/ha): 30
- Plant response rating, Rice (rice [3]; 500 g ai/ha, visual rating): 80
- Pigweed plant response rating (0 to 100 scale) (pigweed; [6]): 80
- Plant response rating, Pigweed (pigweed; [7]): 100
- Pigweed plant response rating (pigweed; 125 g ai/ha, visual rating): 40
- Pigweed plant response rating (pigweed; 500 g ai/ha, visual rating): 60
- Rice plant response rating (rice [4]): 90
- Barnyardgrass plant response rating (0 to 100 scale) (barnyardgrass [5]; [6]): 30
- Plant response rating, Barnyardgrass (barnyardgrass [5]; [7]): 90
- Barnyardgrass plant response rating (barnyardgrass [5]; 125 g ai/ha, visual rating): 10
- Barnyardgrass plant response rating (barnyardgrass [5]; 500 g ai/ha, visual rating): 30
- Oat, Wild plant response rating (wild oat; 125 g ai/ha): 0
- Oat, Wild plant response rating (wild oat; 500 g ai/ha): 30
- Corn plant response rating (0 to 100 scale) (corn; [6]): 20
- Plant response rating, Corn (corn; [7]): 70
- Corn plant response rating (corn; 125 g ai/ha, visual rating): 10
- Corn plant response rating (corn; 500 g ai/ha, visual rating): 20
